For one assay, the system named is MDA-MB-231. The experiment in a line: Antiproliferative activity against human MDA-MB-231 cells assessed as reduction in cell viability after 72 hrs by MTT assay. It counts as functional, cell-based. Conditions: MDA-MB-231, 72 h. (In general: Formazan colour is commonly taken as a measure of viable cells.)
A further assay concerns MCF7. As to the kind of experiment: Antiproliferative activity against human MCF7 cells assessed as reduction in cell viability after 72 hrs by MTT assay. It is filed as functional, cell-based. As to conditions: MCF7, 72 h.
Another assay concerns NCI-H1299. The experiment in a line: Antiproliferative activity against human NCI-H1299 cells assessed as reduction in cell viability after 72 hrs by MTT assay. It is filed as functional, cell-based. Conditions: NCI-H1299, 72 h.
Another assay concerns MDA-MB-453. As to the kind of experiment: Antiproliferative activity against human MDA-MB-453 cells assessed as reduction in cell viability after 72 hrs by MTT assay. As to conditions: MDA-MB-453, 72 h. It counts as functional, cell-based.
Assay [1] addresses T1, CDK6/cyclin D3 (Homo sapiens) (UniProt P30281+Q00534). As to the kind of experiment: Inhibition of CDK6/Cyclin D3 (unknown origin) at 20 nM using ATP by mobility shift assay. It counts as protein-complex assay.
Assay [2] has as its target T2, Cyclin-dependent kinase 4/cyclin D1 (Homo sapiens) (UniProt P11802+P24385). As to the kind of experiment: Inhibition of CDK4/Cyclin D1 (unknown origin) at 20 nM using ATP by mobility shift assay. It counts as protein-complex assay.
The target in assay [3] is T2, Cyclin-dependent kinase 4/cyclin D1 (Homo sapiens). As to the kind of experiment: Inhibition of CDK4/Cyclin D1 (unknown origin) at 200 nM using ATP by mobility shift assay. It counts as protein-complex assay.
The target of assay [4] is T1, CDK6/cyclin D3 (Homo sapiens). As to the kind of experiment: Inhibition of CDK6/Cyclin D3 (unknown origin) at 200 nM using ATP by mobility shift assay. It counts as protein-complex assay.

For orientation: IC50 means the midpoint of a concentration-inhibition curve. The inhibition is the relative decrease from the control value, in per cent.

Take `CC(=O)c1c(C)c2cnc(Nc3ccc(N4CCN(CC(=O)NCCCCNCC#N)CC4)cn3)nc2n(C2CCCC2)c1=O`: the IC50 in the assay on MDA-MB-231, in the assay with MCF7, with NCI-H1299 and in the assay with MDA-MB-453 was more than 20 µM throughout.
For `CC(=O)c1c(C)c2cnc(Nc3ccc(N4CCN(CC(=O)NCCCNCC#N)CC4)cn3)nc2n(C2CCCC2)c1=O`, the IC50 in the assay on MDA-MB-231 is more than 20 µM; in the assay with MCF7, more than 20 µM; in the assay with NCI-H1299, 19.2 µM; with MDA-MB-453 it was 15.5 µM.
In the case of `CC(=O)c1c(C)c2cnc(Nc3ccc(N4CCN(CC(=O)NCCCNC(=O)CCl)CC4)cn3)nc2n(C2CCCC2)c1=O`, the inhibition is 92.1% in assay [1], 56.9% in assay [2], 91.7% in assay [3] and 101% in assay [4]. The IC50 was 7.8 µM in the assay on MDA-MB-231, 5.22 µM in the assay with MCF7, 7.41 µM in the assay with NCI-H1299 and 1.92 µM with MDA-MB-453.
On to `CC(=O)c1c(C)c2cnc(Nc3ccc(N4CCN(CC(=O)NCCOCCOCCNCC#N)CC4)cn3)nc2n(C2CCCC2)c1=O`, for which the IC50 in the assay on MDA-MB-231, in the assay with MCF7, in the assay with NCI-H1299 and in the assay on MDA-MB-453 was more than 20 µM in each case.
For the molecule `CCC(=O)N1CCN(c2ccc(Nc3ncc4c(C)c(C(C)=O)c(=O)n(C5CCCC5)c4n3)nc2)CC1`, the inhibition came to 69.8% in assay [1], 43% in assay [2], 91.4% in assay [3] and 103% in assay [4]. Besides, the IC50 was 142 µM with MDA-MB-231, 25.7 µM in the assay on MCF7, more than 50 µM in the assay with NCI-H1299 and 71.5 µM in the assay with MDA-MB-453.
Regarding `CC(=O)c1c(C)c2cnc(Nc3ccc(N4CCN(CCC(=O)NCCOCCNCC#N)CC4)cn3)nc2n(C2CCCC2)c1=O`, the IC50 in the assay with MDA-MB-231, in the assay with MCF7, with NCI-H1299 and with MDA-MB-453 was more than 20 µM each time.
Turning to `CC(=O)c1c(C)c2cnc(Nc3ccc(N4CCN(CCC(=O)NCCOCCNC(=O)CCl)CC4)cn3)nc2n(C2CCCC2)c1=O`, the inhibition in assay [1] was 91.2%; in assay [2], 60.5%; in assay [3] it was 94.4%; in assay [4], 103%. Besides, the IC50 is more than 20 µM in the assay with MDA-MB-231, 11.5 µM with MCF7, more than 20 µM in the assay with NCI-H1299 and 6.11 µM in the assay on MDA-MB-453.
Take `CC(=O)c1c(C)c2cnc(Nc3ccc(N4CCN(CCC(=O)NCCNCC#N)CC4)cn3)nc2n(C2CCCC2)c1=O`: the IC50 with MDA-MB-231, in the assay with MCF7, in the assay with NCI-H1299 and with MDA-MB-453 was more than 20 µM in each case.
For the molecule `C=CC(=O)NCCCCNC(=O)CN1CCN(c2ccc(Nc3ncc4c(C)c(C(C)=O)c(=O)n(C5CCCC5)c4n3)nc2)CC1`, the IC50 with MDA-MB-231, in the assay with MCF7, with NCI-H1299 and in the assay on MDA-MB-453 was more than 20 µM each time.
As to `C=CC(=O)NCCNC(=O)CN1CCN(c2ccc(Nc3ncc4c(C)c(C(C)=O)c(=O)n(C5CCCC5)c4n3)nc2)CC1`, the IC50 with MDA-MB-231 was 18.7 µM; in the assay with MCF7, more than 20 µM; with NCI-H1299, more than 20 µM; with MDA-MB-453 it was more than 20 µM.
For the molecule `C=CC(=O)NCCCCCCNC(=O)CCN1CCN(c2ccc(Nc3ncc4c(C)c(C(C)=O)c(=O)n(C5CCCC5)c4n3)nc2)CC1`, the IC50 with MDA-MB-231, in the assay with MCF7, with NCI-H1299 and in the assay with MDA-MB-453 was more than 20 µM each time.
Take `CC(=O)c1c(C)c2cnc(Nc3ccc(N4CCN(CC(=O)NCCCCCCNCC#N)CC4)cn3)nc2n(C2CCCC2)c1=O`: the IC50 in the assay on MDA-MB-231, with MCF7, in the assay on NCI-H1299 and in the assay on MDA-MB-453 was more than 20 µM throughout.
Turning to `C=CC(=O)NCCOCCOCCNC(=O)CN1CCN(c2ccc(Nc3ncc4c(C)c(C(C)=O)c(=O)n(C5CCCC5)c4n3)nc2)CC1`, the 50% inhibitory concentration (IC50) with MDA-MB-231 was more than 20 µM; with MCF7 it was more than 20 µM; with NCI-H1299, more than 20 µM; in the assay on MDA-MB-453 it was 10.2 µM.
For the molecule `C=CC(=O)NCCNC(=O)CCN1CCN(c2ccc(Nc3ncc4c(C)c(C(C)=O)c(=O)n(C5CCCC5)c4n3)nc2)CC1`, the IC50 with MDA-MB-231, in the assay with MCF7, in the assay with NCI-H1299 and in the assay on MDA-MB-453 was more than 20 µM each time.
In the case of `C=CC(=O)NCCCCCCNC(=O)CN1CCN(c2ccc(Nc3ncc4c(C)c(C(C)=O)c(=O)n(C5CCCC5)c4n3)nc2)CC1`, the IC50 with MDA-MB-231 was 14.8 µM; in the assay on MCF7, more than 20 µM; in the assay with NCI-H1299, more than 20 µM; in the assay with MDA-MB-453 it was more than 20 µM.
On to `CC(=O)c1c(C)c2cnc(Nc3ccc(N4CCN(CCC(=O)NCCOCCOCCNC(=O)CCl)CC4)cn3)nc2n(C2CCCC2)c1=O`, for which the IC50 in the assay on MDA-MB-231 is 8.92 µM; in the assay with MCF7, 15.8 µM; in the assay on NCI-H1299 it was more than 20 µM; in the assay with MDA-MB-453, 9.2 µM.
Turning to `CC(=O)c1c(C)c2cnc(Nc3ccc(N4CCN(CCC(=O)NCCCCCCNC(=O)CCl)CC4)cn3)nc2n(C2CCCC2)c1=O`, the IC50 with MDA-MB-231, with MCF7, with NCI-H1299 and in the assay with MDA-MB-453 was more than 20 µM throughout.
As to `C=CC(=O)NCCCNC(=O)CN1CCN(c2ccc(Nc3ncc4c(C)c(C(C)=O)c(=O)n(C5CCCC5)c4n3)nc2)CC1`, the IC50 is 18 µM in the assay on MDA-MB-231, more than 20 µM in the assay with MCF7, more than 20 µM with NCI-H1299 and more than 20 µM in the assay on MDA-MB-453.
With `C=CC(=O)N1CCN(c2ccc(Nc3ncc4c(C)c(C(C)=O)c(=O)n(C5CCCC5)c4n3)nc2)CC1`, the IC50 with MDA-MB-231 was more than 20 µM; in the assay on MCF7, more than 20 µM; in the assay with NCI-H1299 it was 8.5 µM; in the assay on MDA-MB-453, 6.96 µM.
As to `CC(=O)c1c(C)c2cnc(Nc3ccc(N4CCN(CCC(=O)NCCCNCC#N)CC4)cn3)nc2n(C2CCCC2)c1=O`, the IC50 in the assay on MDA-MB-231, in the assay on MCF7, with NCI-H1299 and in the assay on MDA-MB-453 was more than 20 µM each time.
As for `CC(=O)c1c(C)c2cnc(Nc3ccc(N4CCN(CC(=O)NCCNCC#N)CC4)cn3)nc2n(C2CCCC2)c1=O`, the IC50 with MDA-MB-231 was more than 20 µM; with MCF7, more than 20 µM; in the assay on NCI-H1299, more than 20 µM; with MDA-MB-453 it was 9.89 µM.
As to `C=CC(=O)NCCCNC(=O)CCN1CCN(c2ccc(Nc3ncc4c(C)c(C(C)=O)c(=O)n(C5CCCC5)c4n3)nc2)CC1`, the IC50 with MDA-MB-231 is 18.3 µM; in the assay with MCF7, more than 20 µM; in the assay on NCI-H1299, more than 20 µM; in the assay with MDA-MB-453, more than 20 µM.
Consider `C=CC(=O)NCCOCCNC(=O)CN1CCN(c2ccc(Nc3ncc4c(C)c(C(C)=O)c(=O)n(C5CCCC5)c4n3)nc2)CC1`, for which the IC50 in the assay with MDA-MB-231 is more than 20 µM; in the assay on MCF7, more than 20 µM; with NCI-H1299, more than 20 µM; in the assay with MDA-MB-453, 15.4 µM.
As for `CC(=O)c1c(C)c2cnc(Nc3ccc(N4CCN(CCC(=O)NCCCCCCNCC#N)CC4)cn3)nc2n(C2CCCC2)c1=O`, the IC50 in the assay on MDA-MB-231, in the assay on MCF7, with NCI-H1299 and in the assay on MDA-MB-453 was more than 20 µM each time.
As to `CC(=O)c1c(C)c2cnc(Nc3ccc(N4CCN(CC(=O)NCCOCCOCCNC(=O)CCl)CC4)cn3)nc2n(C2CCCC2)c1=O`, the IC50 in the assay with MDA-MB-231, in the assay with MCF7, in the assay with NCI-H1299 and with MDA-MB-453 was more than 20 µM in each case.
On to `C=CC(=O)NCCOCCNC(=O)CCN1CCN(c2ccc(Nc3ncc4c(C)c(C(C)=O)c(=O)n(C5CCCC5)c4n3)nc2)CC1`, for which the IC50 with MDA-MB-231 is more than 20 µM; in the assay on MCF7, more than 20 µM; in the assay with NCI-H1299, more than 20 µM; with MDA-MB-453 it was 5.25 µM.
In the case of `C=CC(=O)NCCCCNC(=O)CCN1CCN(c2ccc(Nc3ncc4c(C)c(C(C)=O)c(=O)n(C5CCCC5)c4n3)nc2)CC1`, the IC50 with MDA-MB-231, in the assay with MCF7, in the assay on NCI-H1299 and with MDA-MB-453 was more than 20 µM each time.
In the case of `CC(=O)c1c(C)c2cnc(Nc3ccc(N4CCN(CCC(=O)NCCNC(=O)CCl)CC4)cn3)nc2n(C2CCCC2)c1=O`, the IC50 with MDA-MB-231, with MCF7, in the assay with NCI-H1299 and with MDA-MB-453 was more than 20 µM in each case.
Regarding `C=CC(=O)NCCOCCOCCNC(=O)CCN1CCN(c2ccc(Nc3ncc4c(C)c(C(C)=O)c(=O)n(C5CCCC5)c4n3)nc2)CC1`, the IC50 in the assay on MDA-MB-231 was more than 20 µM; in the assay with MCF7 it was more than 20 µM; with NCI-H1299, more than 20 µM; in the assay with MDA-MB-453, 8.19 µM.
For `CC(=O)c1c(C)c2cnc(Nc3ccc(N4CCN(CCC(=O)NCCCCNCC#N)CC4)cn3)nc2n(C2CCCC2)c1=O`, the IC50 was 12.5 µM in the assay with MDA-MB-231, more than 20 µM in the assay on MCF7, 8.42 µM in the assay with NCI-H1299 and 12.8 µM in the assay with MDA-MB-453.
With `CC(=O)c1c(C)c2cnc(Nc3ccc(N4CCN(CC(=O)NCCOCCNCC#N)CC4)cn3)nc2n(C2CCCC2)c1=O`, the IC50 with MDA-MB-231, with MCF7, in the assay with NCI-H1299 and in the assay with MDA-MB-453 was more than 20 µM throughout.
In the case of `CC(=O)c1c(C)c2cnc(Nc3ccc(N4CCN(CC#N)CC4)cn3)nc2n(C2CCCC2)c1=O`, the IC50 in the assay on MDA-MB-231 was 17.9 µM; with MCF7, more than 20 µM; in the assay on NCI-H1299, more than 20 µM; in the assay with MDA-MB-453 it was more than 20 µM.
As to `CC(=O)c1c(C)c2cnc(Nc3ccc(N4CCN(CCC(=O)NCCOCCOCCNCC#N)CC4)cn3)nc2n(C2CCCC2)c1=O`, the IC50 in the assay with MDA-MB-231, in the assay on MCF7, in the assay with NCI-H1299 and in the assay on MDA-MB-453 was more than 20 µM each time.

(Values after ChEMBL document CHEMBL4819081 (Eur J Med Chem, 2021).)
